Assay results as given in patent US20210045385A1, “PYRIDAZINONE-SUBSTITUTED KETOXIMES AS HERBICIDES” (FMC Corporation, priority 2018, published 2021).

Assays:
Format in all cases: in vivo
[1] = test system: barnyardgrass (Echinochloa crus-galli); assay: Test D flooded paddy test, visual plant response rating; conditions: 250 g ai/ha, scale 0 to 100 (0 no effect, 100 complete control), 13 to 15 d
Outline: (§1)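 Visual injury scores, 0 (no effect) to 100 (complete control), were assigned after 13 to 15 d in the greenhouse by comparison with controls. Test compounds had been added to paddy water covering soil by 3 cm at the 2-leaf stage.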

[2] = test system: rice (Oryza sativa); assay: as above; conditions: 250 g ai/ha, scale 0 to 100 (0 no effect, 100 complete control), 13 to 15 d
Outline: as §1

[3] = test system: duck salad (Heteranthera limosa); assay: as above; conditions: 250 g ai/ha, scale 0 to 100 (0 no effect, 100 complete control), 13 to 15 d
Outline: as §1

[4] = test system: sedge umbrella (small-flower umbrella sedge, Cyperus difformis); assay: as above; conditions: 250 g ai/ha, scale 0 to 100 (0 no effect, 100 complete control), 13 to 15 d
Outline: as §1

[5] = test system: barnyardgrass (Echinochloa crus-galli); assay: Test C postemergence, visual plant response rating
Description: (§2) Seeds of plant species selected from barnyardgrass (Echinochloa crus-galli), kochia (Bassia scoparia), ragweed (common ragweed, Ambrosia artemisiifolia), Italian ryegrass (Lolium mutiflorum), foxtail, giant (giant foxtail, Setaria faberi), foxtail, green (green foxtail, Setaria viridis), and pigweed (Amaranthus retroflexus) were planted into a blend of loam soil and sand and treated preemergence with a directed soil spray using test chemicals formulated in anon-phytotoxic solvent mixture which included a surfactant.
(§3) At the same time, plants selected from these weed species and also wheat (Triticum aestivum), corn (Zea mays), blackgrass (Alopecurus myosuroides), and galium (catchweed bedstraw, Galium aparine) were planted in pots containing the same blend of loam soil and sand and treated with post emergence applications of test chemicals formulated in the same manner. Plants ranged in height from 2 to 10 cm and were in the one- to two-leaf stage for the postemergence treatment. Treated plants and untreated controls were maintained in a greenhouse for approximately 10 d, after which time all treated plants were compared to untreated controls and visually evaluated for injury. Plant response ratings, summarized in Table C, are based on a 0 to 100 scale where 0 is no effect and 100 is complete control. A dash (-)response means no test result.

[6] = test system: wheat (Triticum aestivum); assay: Test C postemergence, visual plant response rating
Description: as §2, §3

[7] = test system: Italian ryegrass (Lolium mutiflorum); assay: Test C postemergence, visual plant response rating
Description: as §2, §3

[8] = test system: pigweed (Amaranthus retroflexus); assay: Test C postemergence, visual plant response rating
Description: as §2, §3

[9] = test system: corn (Zea mays); assay: Test C postemergence, visual plant response rating
Description: as §2, §3

[10] = test system: foxtail, giant (giant foxtail, Setaria faberi); assay: Test C postemergence, visual plant response rating
Description: as §2, §3

[11] = test system: blackgrass (Alopecurus myosuroides); assay: Test C postemergence, visual plant response rating
Description: as §2, §3

[12] = test system: ragweed (common ragweed, Ambrosia artemisiifolia); assay: Test C postemergence, visual plant response rating
Description: as §2, §3

[13] = test system: kochia (Bassia scoparia); assay: Test C postemergence, visual plant response rating
Description: as §2, §3

[14] = test system: galium (catchweed bedstraw, Galium aparine); assay: Test C postemergence, visual plant response rating
Description: as §2, §3

[15] = test system: barnyardgrass (Echinochloa crus-galli); assay: Test C preemergence, visual plant response rating
Outline: (§4)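 Visual injury on a 0 (no effect) to 100 (complete control) scale versus untreated controls, scored approximately 10 d after treatment under greenhouse conditions. Treatments used surfactant-containing non-phytotoxic solvent formulations, sprayed onto loam–sand soil preemergence or onto one- to two-leaf plants 2–10 cm tall postemergence.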

[16] = test system: Italian ryegrass (Lolium mutiflorum); assay: Test C preemergence, visual plant response rating
Outline: as §4

[17] = test system: pigweed (Amaranthus retroflexus); assay: Test C preemergence, visual plant response rating
Outline: as §4

[18] = test system: foxtail, giant (giant foxtail, Setaria faberi); assay: Test C preemergence, visual plant response rating
Outline: as §4

[19] = test system: kochia (Bassia scoparia); assay: Test C preemergence, visual plant response rating
Outline: as §4

[20] = Test C, postemergence, 125 g ai/ha
[21] = Test C, 31 g ai/ha, 0 is no effect, 100 is complete control
[22] = Test C, 125 g ai/ha, 0 is no effect, 100 is complete control

| Structure (SMILES) | Plant response rating, Barnyardgrass (Flood) [1] | Plant response rating, Rice (Flood) [2] | Plant response rating, Ducksalad (Flood) [3] | Plant response rating, Sedge, Umbrella (Flood) [4] | Barnyardgrass plant response rating (0 to 100 scale) ([5]; Postemergence, 31 g ai/ha) | Barnyardgrass plant response rating (0 to 100 scale) [5, 20] | Wheat plant response rating (0 to 100 scale) ([6]; Postemergence, 31 g ai/ha) | Wheat plant response rating (0 to 100 scale) [6, 20] | Ryegrass, Italian plant response rating (0 to 100 scale) ([7]; Postemergence, 31 g ai/ha) | Ryegrass, Italian plant response rating (0 to 100 scale) [7, 20] | Pigweed plant response rating (0 to 100 scale) ([8]; Postemergence, 31 g ai/ha) | Pigweed plant response rating (0 to 100 scale) [8, 20] | Corn plant response rating (0 to 100 scale) ([9]; Postemergence, 31 g ai/ha) | Corn plant response rating (0 to 100 scale) [9, 20] | Foxtail, Giant plant response rating (0 to 100 scale) ([10]; Postemergence, 31 g ai/ha) | Foxtail, Giant plant response rating (0 to 100 scale) [10, 20] | Blackgrass plant response rating (0 to 100 scale) ([11]; Postemergence, 31 g ai/ha) | Blackgrass plant response rating (0 to 100 scale) [11, 20] | Ragweed plant response rating (0 to 100 scale) ([12]; Postemergence, 31 g ai/ha) | Ragweed plant response rating (0 to 100 scale) [12, 20] | further results |
| --- | --- | --- | --- | --- | --- | --- | --- | --- | --- | --- | --- | --- | --- | --- | --- | --- | --- | --- | --- | --- | --- |
| C#CCO/N=C(/c1c(O)c(Cl)nn(C)c1=O)c1ccc(F)c2ccccc12 [Compound 205] | 0 | 0 | 0 | 0 | 70 | 90 | 20 | 70 | 70 | 100 | 90 | 100 | 0 | 40 | 80 | 100 | 20 | 80 | 100 | 100 | Kochia plant response rating (0 to 100 scale) ([13]; Postemergence, 31 g ai/ha): 60; Kochia plant response rating (0 to 100 scale) [13, 20]: 70; Galium plant response rating (0 to 100 scale) ([14]; Postemergence, 31 g ai/ha): 80; Galium plant response rating (0 to 100 scale) [14, 20]: 90; Barnyardgrass plant response rating (0 to 100 scale) [15, 21]: 70; Barnyardgrass plant response rating (0 to 100 scale) [15, 22]: 100; Ryegrass, Italian plant response rating (0 to 100 scale) [16, 21]: 20; Ryegrass, Italian plant response rating (0 to 100 scale) [16, 22]: 100; Pigweed plant response rating (0 to 100 scale) [17, 21]: 80; Pigweed plant response rating (0 to 100 scale) [17, 22]: 100; Foxtail, Giant plant response rating (0 to 100 scale) [18, 21]: 80; Foxtail, Giant plant response rating (0 to 100 scale) [18, 22]: 100; Kochia plant response rating (0 to 100 scale) [19, 21]: 0; Kochia plant response rating (0 to 100 scale) [19, 22]: 70 |
| CON=C(c1cc(Cl)cc(Cl)c1)c1c(O)c(C)nn(C)c1=O [Compound 188] | 15 | 0 | 70 | 85 | 30 | 60 | 10 | 50 | 80 | 100 | 80 | 90 | 0 | 30 | 40 | 90 | 40 | 30 | 60 | 100 | Kochia plant response rating (0 to 100 scale) ([13]; Postemergence, 31 g ai/ha): 80; Kochia plant response rating (0 to 100 scale) [13, 20]: 100; Galium plant response rating (0 to 100 scale) ([14]; Postemergence, 31 g ai/ha): 100; Galium plant response rating (0 to 100 scale) [14, 20]: 100; Barnyardgrass plant response rating (0 to 100 scale) ([15]; 125 g ai/ha): 100; Barnyardgrass plant response rating (0 to 100 scale) [15, 21]: 30; Ryegrass, Italian plant response rating (0 to 100 scale) ([16]; 125 g ai/ha): 100; Ryegrass, Italian plant response rating (0 to 100 scale) [16, 21]: 80; Pigweed plant response rating (0 to 100 scale) ([17]; 125 g ai/ha): 90; Pigweed plant response rating (0 to 100 scale) [17, 21]: 70; Foxtail, Giant plant response rating (0 to 100 scale) ([18]; 125 g ai/ha): 100; Foxtail, Giant plant response rating (0 to 100 scale) [18, 21]: 90; Kochia plant response rating (0 to 100 scale) ([19]; 125 g ai/ha): 100; Kochia plant response rating (0 to 100 scale) [19, 21]: 10 |
| CON=C(c1cc(Cl)cc(Cl)c1)c1c(O)c(C)nn(C)c1=O [Compound 189] | 0 | 15 | 25 | 35 | 30 | 50 | 10 | 50 | 90 | 100 | 50 | 80 | 0 | 10 | 50 | 80 | 10 | 30 | 70 | 90 | Kochia plant response rating (0 to 100 scale) ([13]; Postemergence, 31 g ai/ha): 70; Kochia plant response rating (0 to 100 scale) [13, 20]: 90; Galium plant response rating (0 to 100 scale) ([14]; Postemergence, 31 g ai/ha): 100; Galium plant response rating (0 to 100 scale) [14, 20]: 100; Barnyardgrass plant response rating (0 to 100 scale) ([15]; 125 g ai/ha): 90; Barnyardgrass plant response rating (0 to 100 scale) [15, 21]: 20; Ryegrass, Italian plant response rating (0 to 100 scale) ([16]; 125 g ai/ha): 100; Ryegrass, Italian plant response rating (0 to 100 scale) [16, 21]: 90; Pigweed plant response rating (0 to 100 scale) ([17]; 125 g ai/ha): 100; Pigweed plant response rating (0 to 100 scale) [17, 21]: 70; Foxtail, Giant plant response rating (0 to 100 scale) ([18]; 125 g ai/ha): 90; Foxtail, Giant plant response rating (0 to 100 scale) [18, 21]: 20; Kochia plant response rating (0 to 100 scale) ([19]; 125 g ai/ha): 40; Kochia plant response rating (0 to 100 scale) [19, 21]: 0 |
| Cc1nn(C)c(=O)c(/C(=N/OC(C)C)c2cc(Cl)cc(Cl)c2Cl)c1O [Compound 185] | 45 | 60 | 85 | 95 | 10 | 60 | 50 | 80 | 70 | 100 | 40 | 100 | 0 | 20 | 60 | 90 | 10 | 30 | 90 | 100 | Kochia plant response rating (0 to 100 scale) ([13]; Postemergence, 31 g ai/ha): 10; Kochia plant response rating (0 to 100 scale) [13, 20]: 50; Galium plant response rating (0 to 100 scale) ([14]; Postemergence, 31 g ai/ha): 70; Galium plant response rating (0 to 100 scale) [14, 20]: 100; Barnyardgrass plant response rating (0 to 100 scale) ([15]; 125 g ai/ha): 70; Barnyardgrass plant response rating (0 to 100 scale) [15, 21]: 0; Ryegrass, Italian plant response rating (0 to 100 scale) ([16]; 125 g ai/ha): 100; Ryegrass, Italian plant response rating (0 to 100 scale) [16, 21]: 10; Pigweed plant response rating (0 to 100 scale) ([17]; 125 g ai/ha): 100; Pigweed plant response rating (0 to 100 scale) [17, 21]: 70; Foxtail, Giant plant response rating (0 to 100 scale) ([18]; 125 g ai/ha): 100; Foxtail, Giant plant response rating (0 to 100 scale) [18, 21]: 90; Kochia plant response rating (0 to 100 scale) ([19]; 125 g ai/ha): 50; Kochia plant response rating (0 to 100 scale) [19, 21]: 0 |
